Source: PubChem BioAssay AID2060882 (Molecular Pharmacology Branch, DTP, NCI, 2025)
pIC50: −log10 of the molar value. Several values for one entry are separate records, joined by “and”; a condition that tells them apart may be missing. Equal entries are not always repeated.

System: 898857-211-R-J1-PDC complex spheroids, growth % test/control
Experiment: Anticancer human tumor 898857-211-R-J1-PDC patient-derived melanoma cell line growth inhibition [RAS]
Details: for viability, T/C: stronger effect = lower value
Method in brief: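 Multi-cell-type spheroids: tumor cells plus HUVEC endothelial cells and mesenchymal stem cells. RAS-pathway inhibitors were combined with targeted agents, each dosed in half-log steps down from clinical Cmax, or from 10 microM when Cmax was unknown.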

[1] = curve of first compound, second compound 0.0316 µM
[2] = curve of first compound, second compound 0.1 µM
[3] = curve of first compound, second compound 0.316 µM
[4] = curve of first compound, second compound 1 µM
[5] = second compound 0.0316 µM, first compound 0.0316 µM
[6] = second compound 0.0316 µM, first compound 0.1 µM
[7] = second compound 0.0316 µM, first compound 0.316 µM
[8] = second compound 0.0316 µM, first compound 1 µM
[9] = second compound 0.1 µM, first compound 0.0316 µM
[10] = second compound 0.1 µM, first compound 0.1 µM
[11] = second compound 0.1 µM, first compound 0.316 µM
[12] = second compound 0.1 µM, first compound 1 µM
[13] = second compound 0.316 µM, first compound 0.0316 µM
[14] = second compound 0.316 µM, first compound 0.1 µM
[15] = second compound 0.316 µM, first compound 0.316 µM
[16] = second compound 0.316 µM, first compound 1 µM
[17] = second compound 1 µM, first compound 0.0316 µM
[18] = second compound 1 µM, first compound 0.1 µM
[19] = second compound 1 µM, first compound 0.316 µM
[20] = second compound 1 µM, first compound 1 µM
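Further: spheroids exposed to compound for seven days before readout.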
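Wherever viability, T/C is given: 100% = DMSO vehicle control wells.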

Q: With `C=CC(=O)Nc1cc(Nc2nccc(-c3cn(C)c4ccccc34)n2)c(OC)cc1N(C)CCN(C)C` + C#Cc1c(F)ccc2cc(O)cc(-c3ncc4c(N5CC6CCC(C5)N6)nc(OCC56CCCN5CC(F)C6)nc4c3F)c12 as the molecule, how does the pIC50 [1] read?
A: < 6.00

Q: What about the pIC50 [2] of the same molecule?
A: < 6.00

Q: And the pIC50 [3]?
A: < 6.00

Q: What about the pIC50 [4] of the same molecule?
A: < 6.00

Q: And the pIC50 (curve of first compound, second compound 3.16 µM)?
A: 6.11

Q: What about the pIC50 (curve of first compound, second compound 10 µM) of the same molecule?
A: 7.62

Q: What about the viability, T/C (second compound 0.0316 µM, first compound 0.00316 µM) of the same molecule?
A: 103%

Q: What about the viability, T/C (second compound 0.0316 µM, first compound 0.01 µM) of the same molecule?
A: 92.3%

Q: And the viability, T/C [5]?
A: 103%

Q: And the viability, T/C [6]?
A: 100%

Q: What about the viability, T/C [7] of the same molecule?
A: 85.4%

Q: And the viability, T/C [8]?
A: 65.7%

Q: What about the viability, T/C (second compound 0.1 µM, first compound 0.00316 µM) of the same molecule?
A: 108%

Q: And the viability, T/C (second compound 0.1 µM, first compound 0.01 µM)?
A: 105%

Q: What about the viability, T/C [9] of the same molecule?
A: 107%

Q: What about the viability, T/C [10] of the same molecule?
A: 98.6%

Q: What about the viability, T/C [11] of the same molecule?
A: 94.7%

Q: What about the viability, T/C [12] of the same molecule?
A: 62.1%

Q: What about the viability, T/C (second compound 0.316 µM, first compound 0.00316 µM) of the same molecule?
A: 113%

Q: What about the viability, T/C (second compound 0.316 µM, first compound 0.01 µM) of the same molecule?
A: 101%

Q: What about the viability, T/C [13] of the same molecule?
A: 111%

Q: And the viability, T/C [14]?
A: 96.2%

Q: And the viability, T/C [15]?
A: 85.8%

Q: And the viability, T/C [16]?
A: 49.9%

Q: And the viability, T/C (second compound 1 µM, first compound 0.00316 µM)?
A: 109%

Q: And the viability, T/C (second compound 1 µM, first compound 0.01 µM)?
A: 95.8%

Q: And the viability, T/C [17]?
A: 109%

Q: And the viability, T/C [18]?
A: 97.6%

Q: What about the viability, T/C [19] of the same molecule?
A: 93.6%

Q: What about the viability, T/C [20] of the same molecule?
A: 54.5%

Q: And the viability, T/C (second compound 3.16 µM, first compound 0.00316 µM)?
A: 109%

Q: And the viability, T/C (second compound 3.16 µM, first compound 0.01 µM)?
A: 105%

Q: What about the viability, T/C (second compound 3.16 µM, first compound 0.0316 µM) of the same molecule?
A: 102%

Q: And the viability, T/C (second compound 3.16 µM, first compound 0.1 µM)?
A: 105%

Q: And the viability, T/C (second compound 3.16 µM, first compound 0.316 µM)?
A: 87.6%

Q: And the viability, T/C (second compound 3.16 µM, first compound 1 µM)?
A: 39%

Q: And the viability, T/C (second compound 10 µM, first compound 0.00316 µM)?
A: 65.7%

Q: What about the viability, T/C (second compound 10 µM, first compound 0.01 µM) of the same molecule?
A: 48.1%

Q: What about the viability, T/C (second compound 10 µM, first compound 0.0316 µM) of the same molecule?
A: 45.1%

Q: And the viability, T/C (second compound 10 µM, first compound 0.1 µM)?
A: 45.5%

Q: What about the viability, T/C (second compound 10 µM, first compound 0.316 µM) of the same molecule?
A: 19.9%

Q: And the viability, T/C (second compound 10 µM, first compound 1 µM)?
A: 0.87%

Q: What does the source list for `CC(C)NCC(C(=O)N1CCN(c2ncnc3c2C(C)CC3O)CC1)c1ccc(Cl)cc1` (centres undefined) + C=CC(=O)N1CCN(c2nc(OCC3CCCN3C)nc3c(F)c(-c4nc(N)cc(C)c4C(F)(F)F)c(Cl)cc23)C(C)C1?
A: pIC50 (curve of first compound, second compound 0.00316 µM): < 5.00; pIC50 (curve of first compound, second compound 0.01 µM): < 5.00; pIC50 [1]: < 5.00; pIC50 [2]: < 5.00; pIC50 [3]: < 5.00; pIC50 [4]: < 5.00; viability, T/C (second compound 0.00316 µM, first compound 0.0316 µM): 108%; viability, T/C (second compound 0.00316 µM, first compound 0.1 µM): 99.8%; viability, T/C (second compound 0.00316 µM, first compound 0.316 µM): 97.5%; viability, T/C (second compound 0.00316 µM, first compound 1 µM): 89.2%; viability, T/C (second compound 0.00316 µM, first compound 3.16 µM): 81.2%; viability, T/C (second compound 0.00316 µM, first compound 10 µM): 70.1%; viability, T/C (second compound 0.01 µM, first compound 0.0316 µM): 101%; viability, T/C (second compound 0.01 µM, first compound 0.1 µM): 104%; viability, T/C (second compound 0.01 µM, first compound 0.316 µM): 104%; viability, T/C (second compound 0.01 µM, first compound 1 µM): 85.8%; viability, T/C (second compound 0.01 µM, first compound 3.16 µM): 85.9%; viability, T/C (second compound 0.01 µM, first compound 10 µM): 70.7%; viability, T/C [5]: 111%; viability, T/C [6]: 101%; viability, T/C [7]: 114%; viability, T/C [8]: 103%; viability, T/C (second compound 0.0316 µM, first compound 3.16 µM): 78.9%; viability, T/C (second compound 0.0316 µM, first compound 10 µM): 60.8%; viability, T/C [9]: 118%; viability, T/C [10]: 110%; viability, T/C [11]: 102%; viability, T/C [12]: 88.8%; viability, T/C (second compound 0.1 µM, first compound 3.16 µM): 91.8%; viability, T/C (second compound 0.1 µM, first compound 10 µM): 66.7%; viability, T/C [13]: 114%; viability, T/C [14]: 129%; viability, T/C [15]: 126%; viability, T/C [16]: 112%; viability, T/C (second compound 0.316 µM, first compound 3.16 µM): 93.3%; viability, T/C (second compound 0.316 µM, first compound 10 µM): 71.4%; viability, T/C [17]: 116%; viability, T/C [18]: 121%; viability, T/C [19]: 117%; viability, T/C [20]: 112%; viability, T/C (second compound 1 µM, first compound 3.16 µM): 97.5%; viability, T/C (second compound 1 µM, first compound 10 µM): 70.4%

Q: Which results are given for `CC1(O)CCCC1n1c(=O)c(C(F)F)cc2cnc(NC3CCN(S(C)(=O)=O)CC3)nc21` (centres undefined)?
A: viability, T/C (compound 0.0316 µM): 93.3% and 97.5% and 83.3%; viability, T/C (compound 0.1 µM): 58.4% and 53.8% and 49.8%; viability, T/C (compound 0.316 µM): 42.2% (2×) and 39.9%; viability, T/C (compound 1 µM): 45.2% and 35.5% and 38.7%; viability, T/C (compound 3.16 µM): 41% and 30.3% and 45.7%; viability, T/C (compound 10 µM): 21.5% and 15.1% and 17.7%; pIC50 (curve of compound): 6.63 and 6.77 and 6.83

Q: Which results are given for `NC1c2ccccc2OC12CCN(c1cnc3c(N4CCCc5ncccc54)n[nH]c3n1)CC2` (centres undefined) + CCn1c(-c2cccnc2C(C)OC)c2c3cc(ccc31)N1CCOC(CC(NC(=O)C(C(C)C)N(C)C(=O)C3(F)CCN(C(=O)C#CC(C)(C)N(C)C)CC3)C(=O)N3CCCC(N3)C(=O)OCC(C)(C)C2)C1?
A: pIC50 (curve of first compound, second compound 0.000949 µM): < 5.00; pIC50 (curve of first compound, second compound 0.003 µM): < 5.00; pIC50 (curve of first compound, second compound 0.00949 µM): < 5.00; pIC50 (curve of first compound, second compound 0.03 µM): < 5.00; pIC50 (curve of first compound, second compound 0.0949 µM): < 5.00; pIC50 (curve of first compound, second compound 0.3 µM): 5.10; viability, T/C (second compound 0.000949 µM, first compound 0.0316 µM): 91.6%; viability, T/C (second compound 0.000949 µM, first compound 0.1 µM): 94.3%; viability, T/C (second compound 0.000949 µM, first compound 0.316 µM): 99.9%; viability, T/C (second compound 0.000949 µM, first compound 1 µM): 90.7%; viability, T/C (second compound 0.000949 µM, first compound 3.16 µM): 101%; viability, T/C (second compound 0.000949 µM, first compound 10 µM): 70.9%; viability, T/C (second compound 0.003 µM, first compound 0.0316 µM): 95%; viability, T/C (second compound 0.003 µM, first compound 0.1 µM): 88.7%; viability, T/C (second compound 0.003 µM, first compound 0.316 µM): 90.4%; viability, T/C (second compound 0.003 µM, first compound 1 µM): 90.9%; viability, T/C (second compound 0.003 µM, first compound 3.16 µM): 97.9%; viability, T/C (second compound 0.003 µM, first compound 10 µM): 67.8%; viability, T/C (second compound 0.00949 µM, first compound 0.0316 µM): 99%; viability, T/C (second compound 0.00949 µM, first compound 0.1 µM): 106%; viability, T/C (second compound 0.00949 µM, first compound 0.316 µM): 101%; viability, T/C (second compound 0.00949 µM, first compound 1 µM): 87.2%; viability, T/C (second compound 0.00949 µM, first compound 3.16 µM): 89%; viability, T/C (second compound 0.00949 µM, first compound 10 µM): 74.3%; viability, T/C (second compound 0.03 µM, first compound 0.0316 µM): 103%; viability, T/C (second compound 0.03 µM, first compound 0.1 µM): 100%; viability, T/C (second compound 0.03 µM, first compound 0.316 µM): 101%; viability, T/C (second compound 0.03 µM, first compound 1 µM): 96.6%; viability, T/C (second compound 0.03 µM, first compound 3.16 µM): 95.1%; viability, T/C (second compound 0.03 µM, first compound 10 µM): 63.8%; viability, T/C (second compound 0.0949 µM, first compound 0.0316 µM): 82.9%; viability, T/C (second compound 0.0949 µM, first compound 0.1 µM): 87.2%; viability, T/C (second compound 0.0949 µM, first compound 0.316 µM): 97.7%; viability, T/C (second compound 0.0949 µM, first compound 1 µM): 91.1%; viability, T/C (second compound 0.0949 µM, first compound 3.16 µM): 84.8%; viability, T/C (second compound 0.0949 µM, first compound 10 µM): 55.4%; viability, T/C (second compound 0.3 µM, first compound 0.0316 µM): 73.3%; viability, T/C (second compound 0.3 µM, first compound 0.1 µM): 77.6%; viability, T/C (second compound 0.3 µM, first compound 0.316 µM): 67.9%; viability, T/C (second compound 0.3 µM, first compound 1 µM): 72.9%; viability, T/C (second compound 0.3 µM, first compound 3.16 µM): 72.6%; viability, T/C (second compound 0.3 µM, first compound 10 µM): 44.1%

Q: Which results are given for `NC1c2ccccc2OC12CCN(c1cnc3c(N4CCCc5ncccc54)n[nH]c3n1)CC2` (centres undefined)?
A: viability, T/C (compound 0.0316 µM): 98.9% [middle of 4 runs]; viability, T/C (compound 0.1 µM): 88.9% [middle of 4 runs]; viability, T/C (compound 0.316 µM): 97.4% [middle of 4 runs]; viability, T/C (compound 1 µM): 87% [middle of 4 runs]; viability, T/C (compound 3.16 µM): 94.4% [middle of 4 runs]; pIC50 (curve of compound): < 5.00 and 5.03
